The source of these data is patent US4606857A, “Muramyldipeptide derivatives” (priority 1982, dated 1986).

For the experiment, the system named is Meth-A tumor cells. Put plainly: Antitumor activity against Meth-A system. To be noted: BALB/c mice; Meth-A 1.5×10^6 cells mixed with 100 μg compound in PBS, intradermal; 27th day after inoculation. Type of experiment: in vivo. As to the method: (3) Antitumor Activity Against Meth-A System
A mixture of tumor cells (Meth-A, 1.5×10^6) and 100 μg of Compound 20 of the present invention suspended in PBS was inoculated intradermally in BALB/c mice. […] The value is expressed in terms of the number of tumor-free mice/the number of mice tested.

Regarding `CCCCCCCCCCCCCCCCCCCCCCCCCCCCCC(=O)S[C@@H]1O[C@H](CO)[C@@H](O)[C@H](O[C@H](C)C(=O)N[C@@H](C)C(=O)N[C@H](CCC(=O)OC)C(N)=O)[C@H]1NC(C)=O` [Compound 20, 2-Acetamido-2-deoxy-1-S-triacontanoyl-3-O-(D-2-propanoyl-L-alanyl-D-isoglutaminemethyl ester)-1-thio-β-D-glucopyranose], the “Suppression of Meth-A growth (number of tumor-free mice/number of mice tested)” value was 5/9.
